Test results reported in ChEMBL document CHEMBL5143626, “Marine Natural Products as Leads against SARS-CoV-2 Infection” (J Nat Prod, 2022).
The source made the active and inactive calls. The rule behind the calls is not given here.

Assays:
SARS-CoV-2 [1] = experiment: Antiviral activity against SARS-CoV-2 isolate USA-WA1/2020 infected in human Primary bronchial epithelial cells assessed as reduction in viral RNA replication at 2.8 uM preincubated for 1 hr followed by viral infection and measured after 48 hrs by qRT-PCR method relative to control; format: functional, Severe acute respiratory syndrome coronavirus 2, Primary bronchial epithelial cell; parameters: scale not given: the % may be the effect or the level left; conditions: time 49 hrs
[2] = (§1) Cytotoxicity against human Calu-3 cells assessed as reduction in cell viability; format: toxicity, cell-based; conditions: Calu-3 cells
SARS-CoV-2 [3] = experiment: Antiviral activity against SARS-CoV-2 isolate USA-WA1/2020 infected in Calu-3 cells preincubated for 24 hrs followed by viral infection and measured after 48 hrs by Hoechst 33342 staining based microscopic method; format: functional, organism-based; conditions: Severe acute respiratory syndrome coronavirus 2, USA-WA1/2020, Calu-3
SARS-CoV-2 [4] = experiment: Antiviral activity against SARS-CoV-2 isolate USA-WA1/2020 infected in Calu-3 cells at 2.8 uM preincubated for 24 hrs followed by viral infection and measured after 48 hrs by Hoechst 33342 staining based microscopic method; format: functional, organism-based; conditions: Severe acute respiratory syndrome coronavirus 2, time 72.0 hrs
SARS-CoV-2 [5] = experiment: Antiviral activity against SARS-CoV-2 isolate USA-WA1/2020 infected in Calu-3 cells assessed at 0.5 uM preincubated for 24 hrs followed by viral infection and measured after 48 hrs by Hoechst 33342 staining based microscopic method relative to control; format: functional, organism-based; conditions: Severe acute respiratory syndrome coronavirus 2, time 72.0 hrs
SARS-CoV-2 [6] = experiment: Antiviral activity against SARS-CoV-2 isolate USA-WA1/2020 infected in Calu-3 cells at 1 uM preincubated for 24 hrs followed by viral infection and measured after 48 hrs by Hoechst 33342 staining based microscopic method; format: functional, organism-based; conditions: Severe acute respiratory syndrome coronavirus 2, time 72.0 hrs
Calu-3 = experiment: as §1; format: toxicity, cell-based; conditions: calu-3
SARS-CoV-2 [7] = experiment: Antiviral activity against SARS-CoV-2 isolate USA-WA1/2020 infected in Calu-3 cells at 10 uM preincubated for 24 hrs followed by viral infection and measured after 48 hrs by Hoechst 33342 staining based microscopic method; format: functional, organism-based; conditions: Severe acute respiratory syndrome coronavirus 2, time 72.0 hrs

## CC(=O)C[C@]1(O)c2ccccc2-[n+]2ccc3c([nH]c4ccccc43)c21.O=C([O-])C(F)(F)F
SARS-CoV-2 [1]
  Activity: >90%
[2]
  CC50: 5 µM
SARS-CoV-2 [3]
  EC50: 1.1 µM
SARS-CoV-2 [4]
  Activity: Active
SARS-CoV-2 [5]
  Activity: Active

## CC(C)=CCC[C@@H](C)[C@H]1CC[C@@]2(C(=O)O)C3=C(CC[C@]12C)[C@@]1(C)CC[C@H](O[C@@H]2OC[C@H](O)[C@H](O[C@@H]4OC[C@H](O)[C@H](O[C@@H]5O[C@H](CO)[C@H](O)[C@H](O)[C@H]5O)[C@H]4O)[C@H]2O[C@@H]2O[C@H](CO)[C@H](O)[C@H](O)[C@H]2O)C(C)(C)C1CC3 (stereo partly specified)
SARS-CoV-2 [6]
  Activity: Active

## C[C@H]1CC[C@H]2C(C)(C)CCC[C@]23Oc2ccc(O)cc2C[C@]13C [AUREOL]
SARS-CoV-2 [6]
  Activity: Active
Calu-3
  CC50: > 10 µM
SARS-CoV-2 [3]
  EC50: 4 µM
SARS-CoV-2 [7]
  Activity: Active

## CCC(CC)COC(=O)[C@H](C)N[P@](=O)(OC[C@H]1O[C@@](C#N)(c2ccc3c(N)ncnn23)[C@H](O)[C@@H]1O)Oc1ccccc1 [REMDESIVIR]
Calu-3
  CC50: > 5 µM
SARS-CoV-2 [3]
  EC50: 0.3 µM

## CC1=C2Cc3cc(ccc3O)C(=O)O[C@H](C(C)(C)Br)CC[C@](C)(O)[C@H](Br)CC[C@]2(C)[C@@H](Br)CC1
SARS-CoV-2 [6]
  Activity: Active
Calu-3
  CC50: > 10 µM
SARS-CoV-2 [3]
  EC50: 6.9 µM
SARS-CoV-2 [7]
  Activity: Active
